Values quoted from earlier work in patent publication US12329862B2, “Transdermal therapeutic system containing asenapine” (LTS LOHMANN THERAPIE-SYSTEME AG, priority 2018, dated 2025).

CN1C[C@H]2c3ccccc3Oc3ccc(Cl)cc3[C@@H]2C1 (relative stereo) [asenapine, (3aRS,12bRS)-rel-5-chloro-2,3,3a,12b-tetrahydro-2-methyl-1H-dibenz[2,3:6,7]oxepino[4,5-c]pyrrole]
bioavailability (if ingested): < 2% | terminal disposition half-life (sublingual administration, therapeutic doses): ≥ 24 h | Somnolence and anxiety, share of the patients (very common side effects): ≥ 10%
